Inhibition data for nine molecules are collected here from patent EP0541662B1, “SYNTHETIC PEPTIDES THAT ANTAGONIZE NEUROKININ A, THEIR SALTS AND THEIR MANUFACTURING PROCESSES” (A. MENARINI INDUSTRIE FARMACEUTICHE RIUNITE S.R.L., priority 1990, dated 1992).

Square brackets hold non-standard residues; d marks the D form. Peptide text beside a SMILES is read from it. Nle = CCCC[C@H](N)C(=O)O; Orn = NCCC[C@H](N)C(=O)O

In general, inhibition refers to the relative decrease from the control value, in per cent.

This experiment addresses T1, NK-2 receptor (Oryctolagus cuniculus, UniProt P79218).
T1 construct: This preparation is isolated rabbit pulmonary artery, in which tachykinins produce dose-related contraction; from tissue; host or cells: isolated rabbit pulmonary artery
T1 sequence (P79218 1-384): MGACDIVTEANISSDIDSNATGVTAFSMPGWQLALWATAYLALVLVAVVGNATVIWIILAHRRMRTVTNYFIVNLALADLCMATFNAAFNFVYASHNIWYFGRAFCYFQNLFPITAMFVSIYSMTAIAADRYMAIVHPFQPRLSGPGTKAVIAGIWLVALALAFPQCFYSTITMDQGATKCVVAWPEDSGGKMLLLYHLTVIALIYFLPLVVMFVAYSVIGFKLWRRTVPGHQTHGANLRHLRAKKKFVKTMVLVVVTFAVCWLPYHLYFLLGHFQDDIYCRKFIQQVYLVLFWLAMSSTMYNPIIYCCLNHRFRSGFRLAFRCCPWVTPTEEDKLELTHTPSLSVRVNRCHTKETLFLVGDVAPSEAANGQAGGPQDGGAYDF
In words: Antagonism of NKA-induced contraction in isolated rabbit pulmonary artery. Format: cell-based. Conditions: inhibition of the response to NKA (3 nM), 10⁻⁶M concentration of each compound. How it is done:
The ability of the peptides described in the present invention to interact with the neurokinin A receptor as agonists or antagonists was evaluated in an in-vitro study using a preparation in which the biological response produced by tachykinins and related peptides is determined exclusively from the neurokinin A receptor (NK-2 receptor). This preparation is isolated rabbit pulmonary artery, in which tachykinins produce dose-related contraction (Rovero et al., Neuropeptides, 1989, 13: 263-270). The activity of the peptides in this preparation was determined using a concentration of NKA (3 nM) that produces a response equivalent to 45% of the maximum. The peptides that are the subject of the present application were added to the preparation in increasing concentrations and their activity evaluated in terms of inhibition of the response to NKA.
Antagonist biological activity on the NK-2 receptor in isolated rabbit pulmonary artery of the peptides described.
The molecule `CC(C)[C@H](NC(=O)[C@@H](Cc1c[nH]c2ccccc12)NC(=O)[C@H](Cc1ccc(O)cc1)NC(=O)[C@@H](N)CC(=O)O)C(=O)N[C@H](Cc1c[nH]c2ccccc12)C(=O)N[C@H](Cc1c[nH]c2ccccc12)C(=O)N[C@@H](CCC(=O)O)C(N)=O` [H-Asp-Tyr-DTrp-Val-DTrp-DTrp-Glu-NH₂] (H-DY[dW]V[dW][dW]E-NH2) registered an inhibition of 100%.

As to `CC(C)[C@H](NC(=O)[C@@H](Cc1c[nH]c2ccccc12)NC(=O)[C@H](Cc1ccc(O)cc1)NC(=O)[C@@H](N)CC(=O)O)C(=O)N[C@H](Cc1c[nH]c2ccccc12)C(=O)N[C@H](Cc1c[nH]c2ccccc12)C(=O)N[C@@H](CCCN)C(N)=O` [H-Asp-Tyr-DTrp-Val-DTrp-DTrp-Orn-NH₂] (H-DY[dW]V[dW][dW][Orn]-NH2), the inhibition was found to be 100%.

Consider `CC(C)[C@H](NC(=O)[C@@H](Cc1c[nH]c2ccccc12)NC(=O)[C@H](Cc1ccc(O)cc1)NC(=O)[C@@H](N)CC(=O)O)C(=O)N[C@H](Cc1c[nH]c2ccccc12)C(=O)N[C@H](Cc1c[nH]c2ccccc12)C(=O)N[C@@H](C)C(N)=O` [H-Asp-Tyr-DTrp-Val-DTrp-DTrp-Ala-NH₂] (H-DY[dW]V[dW][dW]A-NH2), for which the inhibition worked out at 100%.

`CC(C)[C@H](NC(=O)[C@@H](Cc1c[nH]c2ccccc12)NC(=O)[C@H](Cc1ccc(O)cc1)NC(=O)[C@@H](N)CC(=O)O)C(=O)N[C@H](Cc1c[nH]c2ccccc12)C(=O)N[C@H](Cc1c[nH]c2ccccc12)C(=O)NCC(N)=O` [H-Asp-Tyr-DTrp-Val-DTrp-DTrp-Gly-NH₂] (H-DY[dW]V[dW][dW]G-NH2) returned an inhibition of 100%.

On to `CC(C)[C@@H]1NC(=O)[C@@H](Cc2c[nH]c3ccccc23)NC(=O)[C@H](Cc2ccc(O)cc2)NC(=O)[C@H](CC(=O)O)NC(=O)[C@H](CCCCN)NC(=O)[C@@H](Cc2c[nH]c3ccccc23)NC(=O)[C@@H](Cc2c[nH]c3ccccc23)NC1=O` [Cyclo[AspTyrDTrpValDTrpDTrpLys], cyclo[AspTyrDTrpValDTrpDTrpLys]] (cyclo(DY[dW]V[dW][dW]K)), for which the inhibition is 95%.

`CC(C)[C@@H]1NC(=O)[C@@H](Cc2c[nH]c3ccccc23)NC(=O)[C@H](Cc2ccc(O)cc2)NC(=O)[C@H](CC(=O)O)NC(=O)[C@H](CCCNC(=N)N)NC(=O)[C@@H](Cc2c[nH]c3ccccc23)NC(=O)[C@@H](Cc2c[nH]c3ccccc23)NC1=O` [Cyclo[AspTyrDTrpValDTrpDTrpArg], cyclo[AspTyrDTrpValDTrpDTrpArg]] (cyclo(DY[dW]V[dW][dW]R)) returned an inhibition of 95%.

The molecule `CCCC[C@H](NC(=O)[C@@H](Cc1c[nH]c2ccccc12)NC(=O)[C@@H](Cc1c[nH]c2ccccc12)NC(=O)[C@@H](NC(=O)[C@@H](Cc1c[nH]c2ccccc12)NC(=O)[C@H](Cc1ccc(O)cc1)NC(=O)[C@@H](N)CC(=O)O)C(C)C)C(N)=O` [H-Asp-Tyr-DTrp-Val-DTrp-DTrp-Nle-NH₂] (H-DY[dW]V[dW][dW][Nle]-NH2) yielded an inhibition of 100%.

Regarding `CC(C)[C@H](NC(=O)[C@@H](Cc1c[nH]c2ccccc12)NC(=O)[C@H](Cc1ccc(O)cc1)NC(=O)[C@@H](N)CC(=O)O)C(=O)N[C@H](Cc1c[nH]c2ccccc12)C(=O)N[C@H](Cc1c[nH]c2ccccc12)C(=O)N[C@@H](CCCCN)C(N)=O` [H-Asp-Tyr-DTrp-Val-DTrp-DTrp-Lys-NH₂] (H-DY[dW]V[dW][dW]K-NH2), the inhibition is 100%.

In turn, `CC(C)C[C@H](NC(=O)[C@@H](Cc1c[nH]c2ccccc12)NC(=O)[C@@H](Cc1c[nH]c2ccccc12)NC(=O)[C@@H](NC(=O)[C@@H](Cc1c[nH]c2ccccc12)NC(=O)[C@H](Cc1ccc(O)cc1)NC(=O)[C@@H](N)CC(=O)O)C(C)C)C(N)=O` [H-Asp-Tyr-DTrp-Val-DTrp-DTrp-Leu-NH₂] (H-DY[dW]V[dW][dW]L-NH2) registered an inhibition of 100%.
